In patent US12049483B2, “Selective and noncovalent inhibitors of oncogenic RAS mutants” (New York University, priority 2020, dated 2024) one finds tumor growth and RAS-mediated signaling data, which are given here for one sequence.

The test system of one experiment is PATU8902 tumors. Briefly: Mouse xenograft model, PATU8902. It counts as in vivo. The conditions noted are these: subcutaneous PATU8902 in nude mice; dox-induced expression after tumor size exceeded 100 mm^3. The protocol: Mouse xenograft experiments. Animal experiments were approved by NYU Langone Institutional Animal Care and Use Committee (IACUC, protocol 170602). PATU8902 or H23 cells expressing monobody under a dox-inducible promotor (5×10^6) were subcutaneously injected into athymic nude mice (Charles River). Once the average tumor size exceeded 100 mm^3, the mice were given food containing doxycycline (Envigo; TD.01306). Tumor sizes were measured using a digital caliper thrice a week along with body weight to ensure that mice were healthy through the duration of doxycycline treatment.

For experiment [1], the system named is RAS-mediated signaling (pERK). In words: ERK activation in HEK293T cells co-expressing monobody and RAS mutants. It counts as cell-based. The conditions noted are these: expressed intracellularly as a genetically encoded reagent. The protocol:
Transient expression of KRAS and monobody for confocal imaging and signaling experiments. HEK293T cells were cultured in glass-bottom 8-well chambers (ibidi GmbH) for colocalization assays or in a 12-well plate for signaling assays for one day prior to transfection. On the day of transfection at 70-90% confluency, media were replaced with antibiotics-free complete media (DMEM supplemented with 10% FBS). Transfection of pEGFP vectors encoding the appropriate mCherry fused monobodies and EGFP fused KRAS4B constructs was performed with lipofectamine 3000 (Thermo Fisher Scientific) and according to the manufacturer's recommended protocol. […]
Cell signaling assay and quantification of immunoblots. […] The supernatant was collected and measured for total protein amount using BCA assay (Thermo Scientific; 23227). […] The proteins were then transferred from the gel to a low fluorescence background PVDF membrane (Millipore; IPFL00010) or regular PVDF membrane (Millipore; ISEQ00010) depending on whether fluorescence or chemiluminescence detection was performed. Phospho-ERK was detected using a rabbit anti-pERK antibody (Cell Signaling; 9101S) and total ERK was detected using a rabbit anti-ERK antibody (Cell Signaling; 9102S). Monobody expression was detected using mouse anti-Flag antibody (Sigma; F3165) or anti-HA tag antibody (BioLegend; 901516). […]

Consider “VSSVPTKLEVVAATPTSLLISWDAPAVTVFFYVITYGETGHGVGAFQAFKVPGSKSTATISGLKPGVDYTITVYARGYSKQGPYKPSPISINYRT [12VC1]”, for which the tumor growth result with PATU8902 tumors is recorded as “significantly reduced tumor growth”. For the same sequence, in experiment [1], the RAS-mediated signaling entry is recorded as “potently inhibited”.
